Consider 32 compounds from PubChem BioAssay AID850 (SRMLSC, 2007).

Molecules are shown by their SMILES. Activity calls are given as the source filed them. The rule behind the calls is not given here.

Assay [1] deals with Saccharomyces cerevisiae growth inhibition, permissive control. Nature of the assay: yeast lifespan-shortening chemical project counter-assay, dose-response inhibition of growth under permissive conditions (AID 850).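 Note: growth read as optical density after one day of incubation.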
Test in assay [2]: as above
The conditions noted are these: Saccharomyces cerevisiae growth inhibition, permissive control, measured here: maximum growth inhibition, stronger effect = higher value.

As a reminder, the IC50 is the concentration that gives 50% inhibition. The inhibition is the percentage by which the read-out fell short of the control. As to `O=C(CC(=O)c1ccccc1O)c1ccc(F)cc1`, the IC50 in assay [1] was 30.1 µM. Besides, the inhibition in assay [2] (at 25 µM) amounted to 37%.

Regarding `CC(Nc1ccc(Br)cn1)c1cc(Cl)ccc1O` (centres undefined), in assay [1], the IC50 is > 100 µM (inactive). The compound further gave an inhibition in assay [2] (at 0.781 µM) of 12.8%.

Regarding `N/C(Cc1ccc(Cl)c(Cl)c1)=N\OC(=O)c1cccs1`, the IC50 in assay [1] was > 100 µM (inactive). In assay [2] (at 0.195 µM), this compound had an inhibition of 4.64%.

With `CCOc1ccc(-c2[nH]ncc2Oc2cccc(OC)c2)c(O)c1`, the IC50 in assay [1] is > 100 µM (inactive). The compound also registered an inhibition in assay [2] (at 50 µM) of 28.1%.

With `Cc1sc2ncnc(N/N=C/c3ccccc3O)c2c1C`, the IC50 in assay [1] was 32.2 µM. This compound gave an inhibition in assay [2] (at 50 µM) of 94.2%.

With `Oc1c(CN2CCN(c3ccccn3)CC2)cc(Cl)c2cccnc12`, the IC50 in assay [1] is 26.5 µM. In addition, in assay [2] (at 50 µM), the inhibition worked out at 95.9%.

With `CC1CCC2(CC1)NC(=S)N(c1ccccc1)N2` (centres undefined), the IC50 in assay [1] was 14.1 µM. The compound also came in with an inhibition in assay [2] (at 50 µM) of 97.5%.

Take `O=S(=O)(/N=C(\Sc1ccc(Cl)cc1)c1ccccc1)c1ccccc1`: in assay [1], the IC50 is 33.3 µM. Also, the inhibition in assay [2] (at 50 µM) is 74%.

With `CCc1cccc(C)c1NC(=S)NCCc1c(C)[nH]c2ccc(C)cc12`, the IC50 in assay [1] is > 100 µM (inactive). This compound also registered an inhibition in assay [2] (at 50 µM) of 8.58%.

In the case of `CCN1/C(=C/C=C/C=C/c2sc3ccccc3[n+]2CC)Sc2ccccc21`, in assay [1], the IC50 is 11.3 µM. Further, the inhibition in assay [2] (at 25 µM) worked out at 87.5%.

As for `Cc1ccc(-c2[nH]nc(N)c2N=Nc2ccccc2C)cc1`, the IC50 in assay [1] is > 100 µM (inactive). The inhibition in assay [2] (at 0.391 µM) was 17.6%.

In the case of `O=C(OCn1ncc(Cl)c(Cl)c1=O)c1cccc(C(F)(F)F)c1`, the IC50 in assay [1] was > 100 µM (inactive). Further, the inhibition in assay [2] (at 50 µM) was 12.7%.

On to `N#C/C(=C/c1cn(-c2ccccc2)nc1-c1cccc(OCc2ccc(F)cc2)c1)C(=O)NCCCn1ccnc1`, for which the IC50 in assay [1] is > 100 µM (inactive). Further, the inhibition in assay [2] (at 0.391 µM) was 4.5%.

`COc1cc2c(cc1OC)CN(C(=O)CSc1nnc3scc(-c4ccccc4)n13)CC2`: in assay [1], the IC50 is > 100 µM (inactive). The compound further gave an inhibition in assay [2] (at 0.781 µM) of 17.1%.

For the compound `CCCCc1ccc(NC(=S)Nc2ccc(Nc3ccc(OC)cc3)cc2)cc1`, the IC50 in assay [1] is > 100 µM (inactive). The compound also came in with an inhibition in assay [2] (at 50 µM) of 16.8%.

`Cc1[nH]n(-c2ccccc2)c(=O)c1/C=N/N1C(=O)c2ccc3c4c(ccc(c24)C1=O)CC3`: in assay [1], the IC50 was > 100 µM (inactive). In addition, the inhibition in assay [2] (at 0.781 µM) was 8.51%.

As to `Cc1cc(N2CCN(c3cccc(C)c3C)CC2)nc(-c2ccccc2)n1`, the IC50 in assay [1] is 37.3 µM. For the same compound, the inhibition in assay [2] (at 50 µM) was determined as 93%.

For the compound `C=CCn1c(C)cc(C(=O)CSc2nnc(NCc3ccccc3)s2)c1C`, the IC50 in assay [1] was > 100 µM (inactive). The compound further came in with an inhibition in assay [2] (at 50 µM) of 22.4%.

Take `CC1=CC(=O)c2ccccc2C1=O`: in assay [1], the IC50 is 17.7 µM. The inhibition in assay [2] (at 50 µM) is 88.6%.

For `Cc1ccc(-c2cc(-c3ccccc3Cl)[nH]n2)c(O)c1`, the IC50 in assay [1] is > 100 µM (inactive). The compound also displayed an inhibition in assay [2] (at 0.781 µM) of 16.4%.

Consider `CC(C)(CNC(=S)NCCc1ccccc1)CNC(=S)NCCc1ccccc1`, for which the IC50 in assay [1] was > 100 µM (inactive). The compound further displayed an inhibition in assay [2] (at 0.391 µM) of 23.5%.

For `CN(c1ccccc1)c1ccc(/C=C/[N+](=O)[O-])cc1`, the half-inhibitory concentration (IC50) in assay [1] was 16.8 µM. In assay [2] (at 50 µM), this compound had an inhibition of 98.4%.

For `Cc1ccc(CNC(=O)CS(=O)Cc2nc(-c3cccs3)oc2C)cc1` (centres undefined), the IC50 in assay [1] is > 100 µM (inactive). The inhibition in assay [2] (at 0.391 µM) is 13.8%.

On to `O=C1CCCC/C1=N\Nc1ccc(OCc2ccccc2)cc1`, for which the half-maximal inhibitory concentration (IC50) in assay [1] is 29.7 µM. In assay [2] (at 50 µM), the inhibition worked out at 72.5%.

As for `CCn1c2ccccc2c2cc(Nc3cc(C)nc4ncnn34)ccc21`, the IC50 in assay [1] is > 100 µM (inactive). The compound further yielded an inhibition in assay [2] (at 6.25 µM) of 14.4%.

As for `O=c1cc(-c2ccncc2)oc2ccccc12`, the IC50 in assay [1] was > 100 µM (inactive). In addition, the inhibition in assay [2] (at 3.125 µM) came out at 20.9%.

For the compound `Cc1c(N=Cc2cc(Br)cc(Br)c2O)cccc1C(=O)O`, in assay [1], the IC50 is 6.96 µM. Also, the inhibition in assay [2] (at 50 µM) was 99%.

With `O=[N+]([O-])c1ccc(N/N=C/c2ccc[nH]2)cc1`, in assay [1], the IC50 was > 100 µM (inactive). In addition, the inhibition in assay [2] (at 50 µM) is 5.41%.

As to `COc1ccc(/C(C)=N/NC(=O)c2ccc(CSc3cccc4cccnc34)cc2)cc1OC`, the IC50 in assay [1] was > 100 µM (inactive). Besides, the inhibition in assay [2] (at 6.25 µM) came out at 12.5%.

As to `COC1=C(N)C(=O)c2nc(-c3nc(C(=O)O)c(C)c(-c4ccc(OC)c(OC)c4O)c3N)ccc2C1=O`, the half-maximal inhibitory concentration (IC50) in assay [1] is 0.463 µM. For the same compound, in assay [2] (at 50 µM), the inhibition was 98.7%.

`CNC(=S)N/N=C(\C)c1ccc(N2CCOCC2)cc1`: the IC50 in assay [1] was > 100 µM (inactive). The inhibition in assay [2] (at 0.195 µM) worked out at 9.86%.

On to `CCc1cccc2c(C(=O)COC(=O)c3ccc([N+](=O)[O-])s3)c[nH]c12`, for which, in assay [1], the IC50 is 28 µM. The compound further yielded an inhibition in assay [2] (at 50 µM) of 99.4%.
